Laboratory results: patent US7837991B2, “Method of cancer treatment by p53 protein control” (Aventis Pharma, S.A., priority 1994, dated 2010)

T1: bovine m-calpain (Bos taurus, UniProt Q27971)
T1 construct: purchased Sigma
T1 sequence (Q27971 20-700 limits assumed): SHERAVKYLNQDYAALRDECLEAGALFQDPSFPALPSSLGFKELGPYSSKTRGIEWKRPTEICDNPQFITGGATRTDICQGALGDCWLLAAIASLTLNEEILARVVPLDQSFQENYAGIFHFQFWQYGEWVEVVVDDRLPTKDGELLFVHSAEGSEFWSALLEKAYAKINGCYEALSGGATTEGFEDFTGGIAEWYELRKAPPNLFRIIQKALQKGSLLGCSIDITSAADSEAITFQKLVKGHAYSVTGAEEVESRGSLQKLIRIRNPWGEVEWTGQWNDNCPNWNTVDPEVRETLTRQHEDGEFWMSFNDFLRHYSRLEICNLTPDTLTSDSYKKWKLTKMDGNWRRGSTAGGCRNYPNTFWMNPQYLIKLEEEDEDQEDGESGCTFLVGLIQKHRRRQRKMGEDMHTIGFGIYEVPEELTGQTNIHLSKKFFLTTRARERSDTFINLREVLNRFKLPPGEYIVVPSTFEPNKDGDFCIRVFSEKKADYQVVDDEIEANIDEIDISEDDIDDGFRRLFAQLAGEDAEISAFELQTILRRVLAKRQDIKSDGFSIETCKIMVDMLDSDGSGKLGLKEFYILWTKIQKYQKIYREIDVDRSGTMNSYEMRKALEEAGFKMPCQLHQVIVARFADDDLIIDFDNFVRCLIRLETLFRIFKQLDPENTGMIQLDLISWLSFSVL
T1 sequence (P13135 1-263 partner): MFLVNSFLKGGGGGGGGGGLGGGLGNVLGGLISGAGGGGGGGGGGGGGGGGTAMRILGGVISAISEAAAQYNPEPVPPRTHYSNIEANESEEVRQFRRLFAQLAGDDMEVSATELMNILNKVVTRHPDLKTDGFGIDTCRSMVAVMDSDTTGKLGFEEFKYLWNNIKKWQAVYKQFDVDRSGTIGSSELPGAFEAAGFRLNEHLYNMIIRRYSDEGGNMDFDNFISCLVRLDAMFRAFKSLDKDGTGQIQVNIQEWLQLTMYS

B1: soybean trypsin inhibitor (protein, UniProt P01070 25-205, looked up)
Trypsin inhibitor A: DFVLDNEGNPLENGGTYYILSDITAFGGIRAAPTGNERCPLTVVQSRNELDKGIGTIISSPYRIRFIAEGHPLSLKFDSFAVIMLCVGIPTEWSVVEDLPEGPAVKIGENKDAMDGWFRLERVSDDEFNNYKLVFCPQQAEDDKCGDIGISIDHDDGTRRLVVSKNKPLVVQFQKLDKESL

Assays:
bovine m-calpain = target: T1, bovine m-calpain; test: Degradation of p53 proteins by exogenous m-calpain in rabbit reticulocyte lysate; format: biochemical; conditions: m-calpain plus calcium, mouse and human wild-type and mutated p53
Text: 1.1. […] The proteins thus obtained are resistant to any degradation, even in the presence of a high concentration of calcium (cofactor essential for the calpains). The addition of bovine m-calpain (Sigma) to the reticulocyte lysate in the presence of calcium led to the rapid disappearance of the neosynthesized proteins and the appearance of proteolytic fragments which are resolvable by electrophoresis. The degradation resistance of other proteins such as dihydrofolate reductase or glyceraldehyde-3-phosphate dehydrogenase under the same experimental conditions indicates the substrate specificity of the reaction.
1.2. Use of inhibitors of calpain for modulating the levels of p53 proteins: in the above Example 1.1., it was shown that the addition of m-calpain induced degradation of the p53 proteins. In this example, in addition to m-calpain, various compounds were introduced into the medium in order to test their capacity to inhibit the activity of calpain.

[1] = tested on: calpains of the cytoplasmic extract; test: Degradation of p53 proteins by endogenous calpains in cytoplasmic extracts of Daudi or Jurkat cells; format: biochemical, human; conditions: in the presence of calcium
Procedure: 2.1. Degradation by the endogenous calpains: mouse and human wild-type p53 proteins, as well as certain mutated forms (cf Example 1) were translated in the reticulocyte lysate and were then incubated in the presence of cytoplasmic extracts of Daudi or Jurkat human lymphoblastoid cells. The cytoplasmic extracts were prepared in the following manner: the cells (available at the ATCC) were cultured in DMEM medium supplemented with 10% foetal calf serum. The cells were then harvested, washed in PBS buffer and then incubated for 5 min in a detergent-free hypotonic lysis buffer (HEPES 20 mM, pH 7.5; KOAc 10 mM; MgOAc 1.5 mM; 2 ml per 5×10^8 cells). The lysis was completed using a Dounce homogenizer and then checked under a microscope. The nuclei were then removed by centrifugation at 2000 g for 5 min, and the supernatants were centrifuged at 10,000 g for 1 hour (Beckman SW60). The cytoplasmic extracts were then aliquoted in an amount of 5 to 12 mg/ml.

Row | Molecule | inhibition of the degradation of the p53 proteins induced by the exogenous calpain (bovine m-calpain) | effect on calcium-dependent degradation of p53 proteins in cytoplasmic extracts [1]
1 | O=C(O)CN(CCOCCOCCN(CC(=O)O)CC(=O)O)CC(=O)O [EGTA] | capable of inhibiting the degradation of the p53 proteins | 
2 | O=S(=O)(F)Cc1ccccc1 [PMSF] |  | show that the degradation of these proteins is dependent on the calpains
3 | CC(=O)N[C@@H](CC(C)C)C(=O)N[C@@H](CC(C)C)C(=O)N[C@H](C=O)CCCNC(=N)N [leupeptin] |  | show that the degradation of these proteins is dependent on the calpains
4 | aprotinin |  | show that the degradation of these proteins is dependent on the calpains
5 | B1 |  | show that the degradation of these proteins is dependent on the calpains
